In US6313164A, “Dithiolin derivatives, their preparation and their therapeutic effect” (Sankyo Company, Limited, priority 1997, dated 2001):

Tests used:
glutathione reductase = assay: Measurement of glutathione reductase activity in cultured rat lens; type: cell-based, SD rats; settings: 72 hours, 37° C.
Protocol: The test animals were 6 to 8 week old male SD rats (supplier: Nippon SLC). The animals were sacrificed by suffocation by inhalation of carbon dioxide. Both eyeballs of each test animal were then excised. An incision was made in the sclera on the back of the eyeballs, and then the vitreous body and iris-ciliary body were removed, followed by removal of the lens.
Each lens obtained in this manner was cultured by immersing it in 3 ml of the culture solution described below in a 6-well tissue culture plate (FALCON). Culturing was performed for 72 hours in a CO2 incubator maintained at 37° C. and 100% humidity in the presence of 5% CO2 (in air).
Medium 199 (Gibco) containing penicillin (20 units/ml) and streptomycin (20 μg/ml) was used as the control culture solution.
The test culture solution contained the test compound added to the above-mentioned culture solution. The cultured lenses were placed in frozen storage until the time of the test.
After homogenising each frozen rat lens in 2 ml of distilled water, the resulting homogenate was separated by centrifugation (10,000 g, 20 minutes) after which the resulting supernatant was used as the enzyme sample.
400 μl of enzyme sample were added to 0.6 ml of phosphate buffer containing 1 mM oxidized glutathione (GSSG) and 100 μM NADPH. After the mixture had reacted at 25° C. for 6 minutes, the absorbance of the reaction mixture (at 340 nm: i.e. OD340nm) was measured. The difference (ΔOD340nm) between the OD340nm value before reaction and the OD340nm value after completion of the reaction was used as an indicator of glutathione reductase activity.

newborn rats = settings: cited from earlier work

Structure (SMILES)	ΔOD340 nm /min/g protein (indicator of glutathione reductase activity) (glutathione reductase; 10 μM in lens culture solution)	ΔOD340 nm /min/g protein (indicator of glutathione reductase activity) (glutathione reductase; 30 μM in lens culture solution)	ΔOD340 nm /min/g protein (indicator of glutathione reductase activity) (glutathione reductase; 100 μM in lens culture solution, p < 0.05)	ΔOD340 nm /min/g protein (indicator of glutathione reductase activity) (glutathione reductase; 300 μM in lens culture solution, p < 0.05)	ΔOD340 nm /min/g protein (indicator of glutathione reductase activity) (glutathione reductase; 1000 μM in lens culture solution, p < 0.05)	activity of glutathione reductase (newborn rats; lipoic acid in addition to BSO)	cataract formation (newborn rats; lipoic acid together with BSO)	total glutathione (oxidized and reduced glutathione) level (newborn rats; lipoic acid together with BSO)
CS(=O)(=O)NC(=O)CCCCC1CCSS1 (centres unmarked) [Example 2, N-[5-(1,2-Dithiolan-3-yl)pentanoyl]methanesulfonamide]	3.24 ± 0.10 ΔOD340 nm /min/g protein	3.20 ± 0.09 ΔOD340 nm /min/g protein	3.59 ± 0.05 ΔOD340 nm /min/g protein	3.70 ± 0.08 ΔOD340 nm /min/g protein	4.16 ± 0.18 ΔOD340 nm /min/g protein	–	–	–
O=C(O)CCCCC1CCSS1 (centres unmarked) [lipoic acid]	–	–	–	–	–	does not increase	suppressed	decrease is prevented
